Consider 47 compounds from patent publication US5486512A, “Quinazoline derivatives as acetylcholinesterase inhibitors” (priority 1994, dated 1996).

Read-outs that look alike come from different tables or passages of the source.

Common to all, as to assay type: biochemical
Experiment [1] has as its target T1, Human Red Blood Cell AChE (Homo sapiens, UniProt P22303).
T1 construct: from tissue; host or cells: human red blood cells
The experiment is described as follows: Inhibition of human red blood cell acetylcholinesterase in vitro (radiometric assay of Johnson and Russell, modified). The text has this: (§1) The in vitro data was obtained according to the radiometric assay of C. D. Johnson and R. L. Russell described in Anal. Biochem., 64:229-238 (1975) and modified as described by M. R. Emmerling and H. M. Sobkowicz in Hearings Research, 32:137-146 (1988); the rat brain homogenate acetylcholinesterase inhibition data were obtained by the Ellman assay, described by G. L. Ellman, D. Courtney, V. Andres, and R. M. Feathersome, described in Biochem. Pharmacol. 7:88-95 (1961), and modified as described by M. J. Marks, D. M. Patinkin, L. D. Artman, J. B. Busch, and A. C. Collins in Pharmacol. Biochem. and Behav.15:271-279 (1981), which references are incorporated herein.

In another experiment the target is Electric Eel AChE (Electrophorus electricus, UniProt O42275). The experiment is described as follows: Inhibition of electric eel acetylcholinesterase in vitro.
Sequence of Electric Eel AChE (O42275 24-633): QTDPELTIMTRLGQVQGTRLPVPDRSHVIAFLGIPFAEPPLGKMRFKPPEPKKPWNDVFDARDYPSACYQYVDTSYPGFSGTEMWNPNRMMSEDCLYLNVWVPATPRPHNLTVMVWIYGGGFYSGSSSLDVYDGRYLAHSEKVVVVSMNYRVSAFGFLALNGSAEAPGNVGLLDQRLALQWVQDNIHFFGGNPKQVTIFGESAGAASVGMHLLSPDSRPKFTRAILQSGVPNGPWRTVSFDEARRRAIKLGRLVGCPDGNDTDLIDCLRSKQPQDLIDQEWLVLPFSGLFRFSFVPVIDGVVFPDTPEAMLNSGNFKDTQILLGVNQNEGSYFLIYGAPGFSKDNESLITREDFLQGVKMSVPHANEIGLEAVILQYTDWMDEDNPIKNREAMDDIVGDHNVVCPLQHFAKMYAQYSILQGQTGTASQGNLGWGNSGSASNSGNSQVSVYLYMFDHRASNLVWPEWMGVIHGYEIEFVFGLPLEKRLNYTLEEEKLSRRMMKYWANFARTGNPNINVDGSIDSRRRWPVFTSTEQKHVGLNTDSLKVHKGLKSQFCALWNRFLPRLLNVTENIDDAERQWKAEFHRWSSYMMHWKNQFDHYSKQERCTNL
Excerpt: as §1

In experiment [2] the target is T2, Rat Brain Homogenate AChE (Rattus norvegicus, UniProt P37136).
T2 construct: rat brain homogenate acetylcholinesterase; from tissue; host or cells: rat brain homogenate
T2 sequence (P37136 32-614): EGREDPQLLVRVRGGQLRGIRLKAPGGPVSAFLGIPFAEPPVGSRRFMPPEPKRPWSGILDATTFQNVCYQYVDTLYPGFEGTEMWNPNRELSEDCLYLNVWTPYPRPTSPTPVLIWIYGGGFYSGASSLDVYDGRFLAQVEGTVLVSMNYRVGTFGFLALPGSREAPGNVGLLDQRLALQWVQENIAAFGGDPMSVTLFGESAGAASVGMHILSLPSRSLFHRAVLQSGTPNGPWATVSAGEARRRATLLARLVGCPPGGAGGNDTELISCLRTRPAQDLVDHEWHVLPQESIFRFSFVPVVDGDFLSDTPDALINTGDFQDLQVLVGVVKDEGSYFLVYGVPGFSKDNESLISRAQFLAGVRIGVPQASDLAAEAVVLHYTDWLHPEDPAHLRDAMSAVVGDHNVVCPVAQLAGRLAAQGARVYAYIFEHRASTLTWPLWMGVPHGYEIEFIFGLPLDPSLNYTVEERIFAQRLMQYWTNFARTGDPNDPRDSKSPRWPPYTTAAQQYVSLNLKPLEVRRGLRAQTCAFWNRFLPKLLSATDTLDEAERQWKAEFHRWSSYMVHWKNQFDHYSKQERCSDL
Nature of the experiment: Inhibition of rat brain homogenate acetylcholinesterase (Ellman assay, modified). The settings on record: Table I.
Excerpt: as §1
For orientation: DTNB colorimetry detects thiols as they appear.

Where [3] appears, read: Table I, read-out: Inhibition of Acetylcholinesterase, Human Red Blood Cell AChE.
[4] abbreviates: Table I, read-out: Inhibition of Acetylcholinesterase, Electric Eel AChE.
Where [5] appears, read: Table II, human red blood cell AChE, read-out: IC50 Human AChE.
[6] abbreviates: Table III, electric eel AChE, read-out: IC50 Eel AChE.

T1 sequence (P22303 other isoform, or with tags, fused parts or gaps): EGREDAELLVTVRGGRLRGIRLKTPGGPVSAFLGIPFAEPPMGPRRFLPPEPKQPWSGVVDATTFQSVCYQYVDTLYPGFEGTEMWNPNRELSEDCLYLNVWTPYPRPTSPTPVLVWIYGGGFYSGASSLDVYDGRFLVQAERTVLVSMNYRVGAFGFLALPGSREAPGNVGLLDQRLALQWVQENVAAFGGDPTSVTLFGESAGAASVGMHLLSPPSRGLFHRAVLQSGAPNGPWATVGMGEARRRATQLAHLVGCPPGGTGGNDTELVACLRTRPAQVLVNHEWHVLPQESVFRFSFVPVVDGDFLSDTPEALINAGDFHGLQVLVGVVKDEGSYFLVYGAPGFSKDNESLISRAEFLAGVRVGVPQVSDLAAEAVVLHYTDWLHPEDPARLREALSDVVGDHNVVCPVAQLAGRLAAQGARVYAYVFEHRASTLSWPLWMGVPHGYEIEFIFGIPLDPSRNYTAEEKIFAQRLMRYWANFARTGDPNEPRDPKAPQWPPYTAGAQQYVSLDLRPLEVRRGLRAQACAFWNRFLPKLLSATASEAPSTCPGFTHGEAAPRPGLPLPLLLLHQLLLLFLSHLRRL

With `Clc1cccc2c1CN1CCCCCC1=N2` [1-Cl, H2, 1-chloro-6,7,8,9,10,12-hexahydroazepino[2,1-b]quinazoline], the IC50 in experiment [1] (setting [3]) was found to be 1700 nM.
Regarding `Clc1cc(Cl)c2c(c1)N=C1CCCCCN1C2` [1,3-DiCl, H2, 1,3-dichloro-6,7,8,9,10,12-hexahydroazepino[2,1-b]quinazoline], the figures for the IC50 (on Electric Eel AChE (setting [4]); in experiment [1] (setting [3]); in experiment [2]) were 158 nM, 40 nM and 172 nM, respectively.
In the case of `Clc1cc(Cl)c2c(c1)N=C1CCCCN1C2`, the IC50 in experiment [1] (setting [5]) turned out to be 60 nM.
As for `COc1cc2c(cc1OC)N=C1CCCCCN1C2` [2,3-DiOCH3, H2, 2,3-dimethoxy-6,7,8,9,10,12-hexahydroazepino[2,1-b]quinazoline], the IC50 was determined as 398 nM at Electric Eel AChE (setting [4]) and 9000 nM in experiment [1] (setting [3]).
`Clc1cc(Cl)c2c(c1)N=C1C3CCC(C3)N1C2` (stereo not drawn): the IC50 in experiment [1] (setting [5]) amounted to 50 nM.
As to `Clc1cc(Cl)c2c(c1)N=C1CCC(c3ccccc3)(c3ccccc3)CN1C2`, in experiment [1] (setting [5]), the IC50 was 63 nM.
In the case of `Fc1ccc2c(c1)CN1CCCCCC1=N2` [2-F, H2, 2-fluoro-6,7,8,9,10,12-hexahydroazepino[2,1-b]quinazoline], the IC50 in experiment [1] (setting [3]) was 2000 nM.
Consider `Cc1cc(Cl)c2c(c1)CN1CCCCCC1=N2` [2-CH3,4-Cl, H2, 4-chloro-2-methyl-6,7,8,9,10,12-hexahydroazepino[2,1-b]quinazoline], for which, in experiment [1] (setting [3]), the IC50 was determined as 631 nM.
The same measure, in the same setting: to `Cc1ccc2c(c1)N=C1CCCCCN1C2` [3-CH3, H2, 3-methyl-6,7,8,9,10,12-hexahydroazepino[2,1-b]quinazoline] belongs 610 nM.
Consider `Clc1cc(Cl)c2c(c1)N=C1C3CCCC(C3)N1C2` (stereo not drawn), for which the IC50 in experiment [1] (setting [5]) was found to be 1000 nM.
Still for that read-out and setting: to `CC1(C)CC2=Nc3cc(Cl)cc(Cl)c3CN2CC(C)(C)C1` belongs 2000 nM.
For `O=c1c2c(Cl)cc(Cl)cc2nc2n1CCCCC2`, in experiment [1] (setting [5]), the IC50 was found to be 63000 nM.
For `N=c1c2ccccc2nc2n1CCCCC2`, the IC50 at Electric Eel AChE (setting [6]) was determined as 2000 nM.
On the same count and under the same terms, for `c1ccc2c(c1)CN1CCCC1=N2` the value was 1600 nM.
For the compound `Clc1ccc2c(c1Cl)N=C1CCCCCN1C2` [3,4-DiCl, H2, 3,4-dichloro-6,7,8,9,10,12-hexahydroazepino[2,1-b]quinazoline], the figures for the IC50 (on Electric Eel AChE (setting [4]); in experiment [1] (setting [3]); in experiment [2]) were 398 nM, 1500 nM and 23800 nM, respectively.
As for `Fc1ccc2c(c1)N=C1CCCCCN1C2` [3-F, H2, 3-fluoro-6,7,8,9,10,12-hexahydroazepino[2,1-b]quinazoline], the figures for the IC50 (on Electric Eel AChE (setting [4]); in experiment [1] (setting [3])) were 600 nM and 2870 nM, respectively.
Regarding `c1ccc(C2(c3ccccc3)CCC3=Nc4ccccc4CN3C2)cc1`, at Electric Eel AChE (setting [6]), the IC50 came to 370 nM.
Take `Clc1cc(Cl)c2c(c1)N=C1C3CC4CC(C3)CC(C4)N1C2`: in experiment [1] (setting [5]), the IC50 worked out at 60 nM.
As to `Clc1ccc2c(c1Cl)CN1CCCCCC1=N2` [1,2-DiCl, H2, 1,2-dichloro-6,7,8,9,10,12-hexahydroazepino[2,1-b]quinazoline], in experiment [1] (setting [3]), the IC50 stood at 3160 nM.
Regarding `c1ccc(C2CC3=Nc4ccccc4CN3C2)cc1` (stereo not drawn), at Electric Eel AChE (setting [6]), the IC50 is 3100 nM.
Consider `S=c1c2ccc(Cl)cc2nc2n1CCCCC2` [3-Cl, S, 3-Chloro-7,8,9,10-tetrahydroazepino[2,1-b]quinazolin-12(6H)-thione], for which the IC50 on Electric Eel AChE (setting [4]) worked out at 15800 nM.
`N#Cc1ccc2c(c1)CN1CCCCCC1=N2` [2-CN, H2]: the IC50 amounted to 1500 nM at Electric Eel AChE (setting [4]) and 6700 nM in experiment [1] (setting [3]).
Take `N=c1c2ccccc2nc2n1CCCC2`: the IC50 on Electric Eel AChE (setting [6]) came out at 1000 nM.
On to `Clc1cc(Cl)c2c(c1)N=C1CCCN1C2`, for which the IC50 in experiment [1] (setting [5]) was 200 nM.
For `c1ccc2c(c1)CN1CCCCCCC1=N2`, the IC50 at Electric Eel AChE (setting [6]) worked out at 4300 nM.
Regarding `Cc1c(Cl)ccc2c1CN1CCCCCC1=N2` [1-CH3,2-Cl, H2, 2-chloro-1-methyl-6,7,8,9,10,12-hexahydroazepino[2,1-b]quinazoline], in experiment [1] (setting [3]), the IC50 was determined as 3980 nM.
Still for that read-out and setting: for `Cc1ccc2c(c1)CN1CCCCCC1=N2` [2-CH3, H2, 2-methyl-6,7,8,9,10,12-hexahydroazepino[2,1-b]quinazoline] the value was 1800 nM.
Regarding `Clc1ccc(Cl)c2c1CN1CCCCCC1=N2` [1,4-DiCl, H2, 1,4-dichloro-6,7,8,9,10,12-hexahydroazepino[2,1-b]quinazoline], the IC50 on Electric Eel AChE (setting [4]) worked out at 100 nM; in experiment [1] (setting [3]), 631 nM; in experiment [2], 16400 nM.
With `Clc1cccc2c1N=C1CCCCCN1C2` [4-Cl, H2, 4-chloro-6,7,8,9,10,12-hexahydroazepino[2,1-b]quinazoline], the IC50 at Electric Eel AChE (setting [4]) came out at 631 nM; in experiment [1] (setting [3]), 1500 nM.
The like results for `Fc1cccc2c1N=C1CCCCCN1C2` [4-F, H2, 4-fluoro-6,7,8,9,10,12-hexahydroazepino[2,1-b]quinazoline] were, in that order, 1500 nM and 1600 nM.
As to `C1=CC2=Nc3ccccc3CN2C=C1`, on Electric Eel AChE (setting [6]), the IC50 was determined as 1600 nM.
Turning to `Clc1cc(Cl)c2c(c1)CN1CCCCCC1=N2` [2,4-DiCl, H2, 2,4-dichloro-6,7,8,9,10,12-hexahydroazepino[2,1-b]quinazoline], the IC50 is 250 nM on Electric Eel AChE (setting [4]), 63 nM in experiment [1] (setting [3]) and 3810 nM in experiment [2].
Take `Clc1ccc2c(c1)N=C1CCCCCN1C2` [3-Cl, H2, 3-chloro-6,7,8,9,10,12-hexahydroazepino[2,1-b]quinazoline]: the values for the IC50 (on Electric Eel AChE (setting [4]); in experiment [2]) were 200 nM and 1900 nM, respectively.
For the compound `c1ccc2c(c1)CN1CCCCCC1=N2` [H, H2], the IC50 worked out at 610 nM at Electric Eel AChE (setting [4]), 1900 nM in experiment [1] (setting [3]) and 16000 nM in experiment [2].
Turning to `COc1ccc2c(c1)N=C1CCCCCN1C2` [3-OCH3, H2], in experiment [1] (setting [3]), the IC50 is 2800 nM.
For the compound `c1ccc2c(c1)CN1CCCCCCCC1=N2`, at Electric Eel AChE (setting [6]), the IC50 is 4000 nM.
In the case of `Clc1cc2c(cc1Cl)N=C1CCCCCN1C2` [2,3-DiCl, H2, 2,3-dichloro-6,7,8,9,10,12-hexahydroazepino[2,1-b]quinazoline], the results for the IC50 (at Electric Eel AChE (setting [4]); in experiment [1] (setting [3]); in experiment [2]) were 398 nM, 2500 nM and 17900 nM, respectively.
`O=c1c2ccc(Cl)cc2nc2n1CCCCC2` [3-Cl, O, 3-chloro-7,8,9,10-tetrahydroazepino[2,1-b]quinazolin-12(6H)-one]: the IC50 at Electric Eel AChE (setting [4]) was 21000 nM.
For the compound `Cc1c(Cl)cc2c(c1Cl)CN1CCCCCC1=N2` [1,3-DiCl, 2-Me, H2, 1,3-dichloro-2-methyl-6,7,8,9,10,12-hexahydroazepino[2,1-b]quinazoline], the IC50 in experiment [1] (setting [3]) was 1000 nM.
The same measure, in the same setting: for `Clc1ccc2c(c1)CN1CCCCCC1=N2` [2-Cl, H2, 2-chloro-6,7,8,9,10,12-hexahydroazepino[2,1-b]quinazoline] the value was 500 nM.
On the same count and under the same terms, for `Cc1cc(C)c2c(c1)CN1CCCCCC1=N2` [2,4-DiCH3, H2, 2,4-dimethyl-6,7,8,9,10,12-hexahydroazepino[2,1-b]quinazoline] the value was 900 nM.
Regarding `N=c1c2ccc(Cl)cc2nc2n1CCCCC2` [3-Cl, NH, 3-chloro-7,8,9,10-tetrahydroazepino[2,1-b]quinazolin-12(6H)-imine], the IC50 on Electric Eel AChE (setting [4]) stood at 500 nM.
Take `Fc1cccc2c1CN1CCCCCC1=N2` [1-F, H2, 1-fluoro-6,7,8,9,10,12-hexahydroazepino[2,1-b]quinazoline]: the IC50 in experiment [1] (setting [3]) amounted to 1900 nM.
`CCc1ccc2c(c1)CN1CCCCCC1=N2` [2-C2 H5, H2, 2-ethyl-6,7,8,9,10,12-hexahydroazepino[2,1-b]quinazoline]: the IC50 at Electric Eel AChE (setting [4]) is 1000 nM; in experiment [1] (setting [3]), 2500 nM.
For the compound `Clc1ccc2c(c1)N=C1CC3CCC(C3)N1C2` (racemic), the IC50 in experiment [1] (setting [5]) amounted to 920 nM.
Consider `FC(F)(F)c1ccc2c(c1)N=C1CCCCCN1C2`, for which, at Electric Eel AChE (setting [6]), the IC50 amounted to 1000 nM.
As for `Cc1cccc2c1N=C1CCCCCN1C2` [4-CH3, H2, 4-methyl-6,7,8,9,10,12-hexahydroazepino[2,1-b]quinazoline], in experiment [1] (setting [3]), the IC50 worked out at 6000 nM.
